Assay results from US6824990B1, “Methods of detecting and modulating oligomerization of G protein-coupled receptors” (priority 1999, dated 2004).

Columns and labels:
[1] = biological target: T1, Ste2Δtail-CFP and Ste2Δtail-YFP (Saccharomyces cerevisiae, UniProt D6VTK4); experiment: FRET in purified plasma membrane fractions; format: biochemical, S. cerevisiae
T1 construct: CFP and YFP were joined 8 amino acids (position 304) beyond transmembrane domain VII of the α-factor receptor; expressed in transfected cells; host or cells: S. cerevisiae KBY58 (ste2Δ), single copy plasmids, STE2 promoter
T1 sequence (D6VTK4 1-304, stated change not applied): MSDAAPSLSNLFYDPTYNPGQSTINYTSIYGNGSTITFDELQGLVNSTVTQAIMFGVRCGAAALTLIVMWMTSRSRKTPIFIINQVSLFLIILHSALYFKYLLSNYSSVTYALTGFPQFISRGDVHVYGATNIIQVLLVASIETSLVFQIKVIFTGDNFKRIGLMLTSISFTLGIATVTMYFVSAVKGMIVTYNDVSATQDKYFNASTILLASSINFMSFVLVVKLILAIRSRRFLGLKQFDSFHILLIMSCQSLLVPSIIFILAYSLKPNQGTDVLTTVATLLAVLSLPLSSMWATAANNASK
Method: Yeast cells expressed tailless α-factor receptors fused to CFP or YFP (Ste2-CFP or -YFP) and/or glucose transporters fused to YFP (Hxt1-YFP), as indicated. Untagged α-factor receptors (Ste2) or glucose transporters (Hxt1) were overexpressed where indicated. Intact cells (panels a-g) or plasma membrane fractions (panels h-i) were excited at the λmax of CFP (440 nm) and fluorescence emission was detected by scanning fluorometry. Fluorescence emission due to FRET (FRET) was determined as: (emission spectrum of cells co-expressing CFP and YFP fusion proteins)—(emission spectrum of cells expressing CFP fusion alone)—(emission spectrum of cells expressing YFP fusion alone). The efficiency of FRET (panel e) was determined as: (integrated FRET curve)/(integrated emission curve obtained upon direct excitation of YFP at 490 nm). In panels f, g and i, only the FRET emission curves are shown for experiments performed under the indicated conditions. […]
CFP and YFP were joined 8 amino acids (position 304) beyond transmembrane domain VII of the α-factor receptor (STE2 gene product) and at the immediate C-terminus of a glucose transporter (HXT1 gene product). These fusion proteins were expressed from the STE2 promoter on single copy plasmids with different selectable markers, allowing them to be co-expressed at similar levels as shown by quantitation of CFP and YFP fluorescence. […]

[2] = test system: Ste2Δtail-CFP and Ste2Δtail-YFP; experiment: FRET between CFP- and YFP-tagged tailless α-factor receptors in intact yeast cells; format: cell-based, S. cerevisiae; conditions: cells treated with latrunculin B
Method: (§1) Yeast cells expressed tailless α-factor receptors fused to CFP or YFP (Ste2-CFP or -YFP) and/or glucose transporters fused to YFP (Hxt1-YFP), as indicated. Untagged α-factor receptors (Ste2) or glucose transporters (Hxt1) were overexpressed where indicated. Intact cells (panels a-g) or plasma membrane fractions (panels h-i) were excited at the λmax of CFP (440 nm) and fluorescence emission was detected by scanning fluorometry. Fluorescence emission due to FRET (FRET) was determined as: (emission spectrum of cells co-expressing CFP and YFP fusion proteins)—(emission spectrum of cells expressing CFP fusion alone)—(emission spectrum of cells expressing YFP fusion alone). The efficiency of FRET (panel e) was determined as: (integrated FRET curve)/(integrated emission curve obtained upon direct excitation of YFP at 490 nm). In panels f, g and i, only the FRET emission curves are shown for experiments performed under the indicated conditions. The results shown in each panel are representative of at least 6 independent experiments, with equivalent results.
(§2) CFP and YFP were joined 8 amino acids (position 304) beyond transmembrane domain VII of the α-factor receptor (STE2 gene product) and at the immediate C-terminus of a glucose transporter (HXT1 gene product). These fusion proteins were expressed from the STE2 promoter on single copy plasmids with different selectable markers, allowing them to be co-expressed at similar levels as shown by quantitation of CFP and YFP fluorescence. Ste2Δtail-CFP and -YFP fusions had normal agonist binding affinities (1-2 nM) and cell surface expression (6-8,000 receptors/cell), as determined by radioligand binding assays. […] Yeast cells (KBY58, a ste2Δ mutant) expressing CFP and/or YFP fusion proteins were grown at 30° C. in selective media to a density of 10^7 cells/ml, washed, suspended in 50 mM PIPES, pH 6.0 and analyzed by scanning fluorometry. […] Cells (10^7 cells in 3 ml) or membranes (20 μg protein in 3 ml) were irradiated at 440 nm to excite CFP and fluorescence emission was recorded from 460-610 nm. […]

[3] = biological target: T1, Ste2Δtail-CFP and Ste2Δtail-YFP; experiment: as above; format: cell-based, S. cerevisiae
Method: as §1, §2

Nc1nc2c(ncn2[C@@H]2O[C@H](COP(=O)(O)OP(=O)(O)OP(O)(O)=S)[C@@H](O)[C@H]2O)c(=O)[nH]1 [GTP-γS]
apparent efficiency of FRET ([1]; 5 μM agonist and 50 μM GTP-γS (activated and uncoupled), indistinguishable from inactive, n=11): 20%±2%
effect on efficiency of FRET ([1]; given membrane preparation, GTP-γS 50 μM): no effect

C/C1=C/C(=O)O[C@@H]2C[C@@H](CC[C@H](C)/C=C\CC1)O[C@@](O)([C@@H]1CSC(=O)N1)C2 [latrunculin B]
FRET when the actin cytoskeleton was disassembled [2]: FRET was detected

desTrp1,Ala3,Nle12-α-factor
effect on efficiency of FRET ([3]; given transformant, 1 nM-5 μM, 1-20 min after addition): no effect
apparent efficiency of FRET ([3]; treated cells, sub-saturating to saturating ligand concentrations, indistinguishable from control cells, n=6): 18%±1
